Assay results reported in patent publication US11077138B2, “Methods of tissue repair and regeneration” (INNOLIFE CO., LTD., priority 2015, dated 2021).
“Also recorded” adds a separate entry of the source.

How the values were obtained:
[1] = test system: BMSCs homing (SDF-1/CXCR4 axis); assay: Tracking of homing of labeled autologous BMSCs to the infarcted rabbit heart; format: in vivo, New Zealand white rabbits; details: BMSCs incubated overnight with AMD3100
Method: (1) Adult male New Zealand white rabbits were preoperative fasted for 12 hours, and the operation room was sterilized by overnight ultraviolet radiation before the surgery. (2) Rabbits were anesthetized with 3 ml/kg chloral hydrate by intraperitoneal administration, and then placed on the operation table in the supine position. Hairs covering chest and limbs at electrode attachment site were shaved. The surgical area was scrubbed with povidone-iodine for 3 consecutive times. Lidocaine was injected into the subcutaneous area around the incision site. (3) Electrodes were attached to the limbs and ECG (electrocardiogram) was recorded 30 minutes before and after the surgery. (4) The rabbits were subjected to a median sternotomy. The skin was cut and the s.c. tissue and the muscular was dissected. Afterwards, the sternum was retracted and the pleuron was dissected, the pleural space was opened and so the pericardium was exposed. (5) After gently incision of the pericardium, the heart was exposed and the left circumflex branch (LC) was ligated. […] (6) Color changes of the anterior ventricular wall, the difference of left ventricular wall motion, and alterations including ST segment recorded by electrodes II, III, and aVF in ECG was monitored for 2 minutes to ensure that the ligation was successful. […]

[2] = test system: isolated rat aortic rings; assay: Isolated rat aortic ring assay for angiogenesis; format: cell-based, Sprague Dawley rats; details: 8 days
Description: Thoracic aortas were removed from 8- to 10-week-old male Sprague Dawley (SD) rats (292-307 g) and immediately transferred to a culture dish containing ice-cold serum-free endothelial basal medium-2 (EBM-2, Lonza Cologne AG). The periaortic fibroadipose tissue was carefully removed with fine microdissecting forceps and iridectomy scissors; paying special attention not to damage the aortic wall. One-millimeter long aortic rings were sectioned and extensively rinsed in five consecutive washes with EBM-2.
Forty-eight well tissue culture grade plates were covered with 100 μl of matrigel (GFR, BD) and allowed to gel for 45 min at 37° C., 5% CO2. Aortic rings were placed on the matrigel-coated wells, covered with an additional 100 μl matrigel and allowed to gel again for 45 min at 37° C., 5% CO2. The culture was then added 250 μl EBM-2 containing 1% fetal bovine serum (FBS). Copper sulfide solution was added to the culture at a final concentration of 5, 25, 50 or 100 μM copper element. The growth media were removed and replaced every 2 days. Aortic rings were photographed on Day 8.
The area of angiogenic sprouting was calculated using the Image J software program (NIH, Bethesda, Md.). Microvessel densities are reported in square pixels.
(§1) Aortic rings were cultured in 48-well plates in 250 μl EBM-2 (1% FBS) media containing anti-VEGF antibody (Santa Cruz, Calif., USA) at a final concentration of 2 ng/ml. The treatment and angiogenesis assay were the same as above.

HIF-1 = assay: Hypoxia-induced activation of HIF-1 in HepG2 cells; format: cell-based, human
Description: There are multiple sites that potentially require copper for activation of HIF-1, including HIF-1α synthesis, stabilization, translocation from cytosol to nucleus, binding to the HRE sequence of target genes, and HIF-1 transcriptional complex formation. We have specifically determined the mechanism of action of copper in regulation of HIF-1 transcriptional activity in human hepatoma HepG2 cells. […] This CCS gene silencing result excludes possible confounding effect on nonspecific chelation by TEPA. […] Therefore, it was concluded that copper is required for HIF-1 activation through regulation of HIF-1α binding to the HRE and the formation of HIF-1 transcriptional complex. Copper deficiency thus suppresses HIF-1 transcriptional activity by FIH-1 depression.

VEGF = assay: Western blotting analysis of VEGF in isolated rat aortic rings; format: cell-based, Sprague Dawley rats; details: for production of VEGF (protein level): 8 days
Method: Protein extracts were obtained after lysing rat aortic rings with matrigel in the radio immunoprecipitation assay (RIPA) lysis buffer (Beyotime, Jiangsu, CN) containing 1% complete ethylene diamine tetraacetic acid (EDTA)-free protease inhibitor cocktail (Roche, Mannhein, DE) for 30 min on ice. Equal loading of protein was assured by prior quantitation using a bicinchoninic acid (BCA) protein assay kit (Thermo, Rockford, USA). An appropriate amount of protein in total lysates was resolved in a sodium dodecyl sulfate (SDS)-polyacrylamide electrophoresis gel and transferred onto a polyvinylidene difluoride membrane (Bio-rad, USA). Membranes were blocked for 1 h in Tris-buffered saline/Tween 20 (TBST) (10 mM Tris.HCl, pH 8.0, 150 mM NaCl and 0.1% Tween 20) containing 5% nonfat dry milk and incubated overnight at 4° C. with the primary mouse anti-VEGF antibody (Santa Cruz, Calif., USA) and mouse antibeta actin antibody (ZSGB-BIO, Beijing, CN) diluted in the blocking buffer. After washing with TBST, the membranes were incubated with a horseradish peroxidase (HRP)-linked antimouse immunoglobulin G (IgG) antibody (ZSGB-BIO, Beijing, CN) diluted in TBST for 1 h at room temperature. Target proteins were visualized using a chemiluminescence HRP substrate (Millipore, Billerica, USA).
as §1

[3] = copper at concentrations above 50 μM

c1cc(CN2CCCNCCNCCCNCC2)ccc1CN1CCCNCCNCCCNCC1 [AMD3100]
homing of AMD3100 treated BMSCs to Cu-albumin-microbubble treated chronic ischemic area ([1]; 6 months after MI surgery, Cu-albumin-microbubble treated): homing signals could not be observed; also recorded: no BMSCs homing signal | homing of AMD3100 treated BMSCs to acute cardiac infarct area ([1]; within 1 month after MI surgery): could not home cardiac infarct area; also recorded: significant decrease of BMSCs homing signals

NCCNCCNCCNCCN [TEPA, tetraethylenepentamine]
copper promotion of angiogenesis, TEPA with copper ([2]; 25 μM TEPA simultaneously with 5 μM copper): blocked; also recorded: completely suppressed the angiogenic promotion effect of 5 μM copper | angiogenesis, TEPA alone ([2]; 25 μM TEPA): caused an inhibition of angiogenesis | hypoxia-induced activation of HIF-1 (HIF-1): suppressed hypoxia-induced activation of HIF-1 | VEGF levels (VEGF; 25 μM TEPA, with or without 5 μM copper): significantly decreased VEGF levels

Copper sulfide
angiogenesis (area of angiogenic sprouting) ([2]; 5 μM copper, EBM-2 with 1% FBS): stimulated the vascular formation; also recorded: strongest promotion effect on the angiogenesis | angiogenesis (area of angiogenic sprouting) [2, 3]: lost the pro-angiogenesis effect; also recorded: significantly inhibitory effect | production of VEGF (protein level) (VEGF; 5 μM copper): did not enhance the production of VEGF | production of VEGF (protein level) (VEGF; [3]): significantly increased the production of VEGF
